In ChEMBL document CHEMBL5579860, “Design and synthesis of novel Thiazolo[5,4-b]pyridine derivatives as potent and selective EGFR-TK inhibitors targeting resistance Mutations in non-small cell lung cancer” (Eur J Med Chem, 2024):
Active and inactive are the calls of the source. No cut-off for these calls is given here.

How the values were obtained:
HCC827 [1] = experiment: Anticancer activity against human HCC827 cells incubated for 72 hrs by MTT assay; assay type: functional, cell-based; details: HCC827, 72 h
NCI-H1975 = experiment: Anticancer activity against human NCI-H1975 cells incubated for 72 hrs by MTT assay; assay type: functional, cell-based; details: NCI-H1975, 72 h
A549 = experiment: Anticancer activity against human A549 cells incubated for 72 hrs by MTT assay; assay type: functional, cell-based; details: A549, 72 h
[2] = Cytotoxicity against human BEAS-2B cells; assay type: toxicity, cell-based
HCC827 [3] = experiment: Induction of apoptosis in human HCC827 cells assessed as early apoptotic cells at IC50 concentration incubated for 24 to 48 hrs by Annexin V-FITC/PI staining based flow cytometry ( Rvb = 2.0% ); assay type: functional; details: time 24-48 hrs
HCC827 [4] = experiment: Induction of apoptosis in human HCC827 cells assessed as late apoptotic cells at IC50 concentration incubated for 24 to 48 hrs by Annexin V-FITC/PI staining based flow cytometry ( Rvb = 1.6% ); assay type: functional; details: time 24-48 hrs
[5] = target: Epidermal growth factor receptor (Homo sapiens) (UniProt P00533); experiment: Inhibition of EGFR autophosphorylation in human HCC827 cells at 0.01 to 1.00 uM incubated for 8 hrs by Western blot analysis; assay type: cell-based; details: dose 0.01-1 µM
Sequence of Epidermal growth factor receptor (Homo sapiens) (P00533 whole entry): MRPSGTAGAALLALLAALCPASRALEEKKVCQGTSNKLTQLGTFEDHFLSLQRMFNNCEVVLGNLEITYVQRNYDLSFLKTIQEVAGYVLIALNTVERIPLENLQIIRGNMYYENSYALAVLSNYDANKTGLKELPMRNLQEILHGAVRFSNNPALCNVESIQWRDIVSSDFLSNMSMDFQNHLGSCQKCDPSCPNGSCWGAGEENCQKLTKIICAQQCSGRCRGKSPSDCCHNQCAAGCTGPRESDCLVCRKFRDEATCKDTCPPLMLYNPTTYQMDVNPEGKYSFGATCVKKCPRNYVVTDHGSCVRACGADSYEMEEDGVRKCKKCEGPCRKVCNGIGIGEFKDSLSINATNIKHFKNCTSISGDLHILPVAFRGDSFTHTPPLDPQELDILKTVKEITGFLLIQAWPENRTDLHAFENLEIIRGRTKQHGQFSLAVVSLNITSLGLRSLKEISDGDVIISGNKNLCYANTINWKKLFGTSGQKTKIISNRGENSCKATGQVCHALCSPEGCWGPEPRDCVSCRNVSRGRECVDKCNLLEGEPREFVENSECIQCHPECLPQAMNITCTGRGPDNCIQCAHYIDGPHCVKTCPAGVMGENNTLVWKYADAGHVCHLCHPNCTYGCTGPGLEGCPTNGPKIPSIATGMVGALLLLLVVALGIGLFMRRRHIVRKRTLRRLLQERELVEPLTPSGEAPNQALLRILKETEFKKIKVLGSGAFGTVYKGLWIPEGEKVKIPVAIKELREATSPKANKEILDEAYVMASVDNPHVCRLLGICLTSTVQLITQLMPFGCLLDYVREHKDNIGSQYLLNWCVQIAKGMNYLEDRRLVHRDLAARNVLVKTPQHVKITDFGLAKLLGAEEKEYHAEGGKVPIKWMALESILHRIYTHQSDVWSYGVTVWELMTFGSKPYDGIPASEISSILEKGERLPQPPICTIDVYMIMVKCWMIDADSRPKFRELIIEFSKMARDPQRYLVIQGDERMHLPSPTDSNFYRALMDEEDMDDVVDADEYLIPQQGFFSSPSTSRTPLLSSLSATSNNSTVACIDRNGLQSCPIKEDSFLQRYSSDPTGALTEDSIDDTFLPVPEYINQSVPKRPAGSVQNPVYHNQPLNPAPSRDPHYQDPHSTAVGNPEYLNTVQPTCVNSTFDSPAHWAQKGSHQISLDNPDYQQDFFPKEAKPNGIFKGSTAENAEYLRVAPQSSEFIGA

SMILES | IC50 (HCC827 [1]) | IC50 (NCI-H1975) | IC50 (A549) | IC50 [2] | Activity (HCC827 [3]) | Activity (HCC827 [4]) | inhibition [5]
Cc1c(NS(=O)(=O)c2ccc(F)c(C#N)c2)cccc1-c1nc2cccnc2s1 | 1460 nM | 2100 nM | 3270 nM |  |  |  | 
Cc1c(NS(=O)(=O)c2ccc(F)cc2F)cccc1-c1nc2cccnc2s1 | 1400 nM | 2110 nM | 3170 nM |  |  |  | 
COc1ccc(F)cc1S(=O)(=O)Nc1cccc(-c2nc3cc(CN4CCOCC4)cnc3s2)c1C | 4610 nM | 4700 nM | 8540 nM |  |  |  | 
COc1cccc(-c2cnc3sc(-c4cccc(NS(=O)(=O)c5cc(F)ccc5OC)c4C)nc3c2)c1 | 6210 nM | 7100 nM | 11700 nM |  |  |  | 
COc1ccc(F)cc1S(=O)(=O)Nc1cccc(-c2nc3cc(-c4cccs4)cnc3s2)c1C | 4880 nM | 4720 nM | 9080 nM |  |  |  | 
Cc1c(NS(=O)(=O)c2cc(F)ccc2F)cccc1-c1nc2cc(-c3cccc(C(F)(F)F)c3)cnc2s1 | 92 nM | 260 nM | 1210 nM |  |  |  | 
C=CC(=O)Nc1cc(Nc2nccc(-c3cn(C)c4ccccc34)n2)c(OC)cc1N(C)CCN(C)C [OSIMERTINIB] | 7 nM |  | 860 nM |  |  |  | 
COc1ccc(F)cc1S(=O)(=O)Nc1cccc(-c2nc3cc(-c4cccc(C(F)(F)F)c4)cnc3s2)c1C | 6020 nM | 6110 nM | 10900 nM |  |  |  | 
CCc1cnc2sc(-c3cccc(NS(=O)(=O)c4cc(F)ccc4F)c3C)nc2c1 | 700 nM | 420 nM | 1480 nM |  |  |  | 
COc1ccc(F)cc1S(=O)(=O)Nc1cccc(-c2nc3cc(C#N)cnc3s2)c1C | 6110 nM | 6250 nM | 11400 nM |  |  |  | 
COc1ccc(F)cc1S(=O)(=O)Nc1cccc(-c2nc3cc(-c4cccnc4)cnc3s2)c1C | 6010 nM | 6190 nM | 11200 nM |  |  |  | 
Cc1c(NS(=O)(=O)c2cc(F)ccc2F)cccc1-c1nc2cc(CN3CCN(C)CC3)cnc2s1 | 520 nM | 770 nM | 2310 nM |  |  |  | 
Cc1c(NS(=O)(=O)c2cc(F)ccc2F)cccc1-c1nc2cc(-c3cncnc3)cnc2s1 | 21 nM | 110 nM | 880 nM | 42100 nM |  |  | 
COc1cc(-c2cnc3sc(-c4cccc(NS(=O)(=O)c5cc(F)ccc5F)c4C)nc3c2)ccn1 | 42 nM | 180 nM | 960 nM |  |  |  | 
Cc1c(NS(=O)(=O)c2cccc(Cl)c2)cccc1-c1nc2cccnc2s1 | 1590 nM | 2210 nM | 3280 nM |  |  |  | 
Cc1c(NS(=O)(=O)c2cc(F)ccc2F)cccc1-c1nc2cc(CN3CCCC3)cnc2s1 | 490 nM | 520 nM | 2180 nM |  |  |  | 
COc1ccc(F)cc1S(=O)(=O)Nc1cccc(-c2nc3cc(-c4ccccc4)cnc3s2)c1C | 6080 nM | 6200 nM | 11000 nM |  |  |  | 
CC(=O)c1ccc(-c2cnc3sc(-c4cccc(NS(=O)(=O)c5cc(F)ccc5F)c4C)nc3c2)cc1 | 560 nM | 360 nM | 1420 nM |  |  |  | 
Cc1c(NS(=O)(=O)c2cc(F)ccc2F)cccc1-c1nc2cc(CN3CCOCC3)cnc2s1 | 420 nM | 460 nM | 2100 nM |  |  |  | 
Cc1c(NS(=O)(=O)c2cc(F)ccc2F)cccc1-c1nc2cc(-c3cccs3)cnc2s1 | 110 nM | 300 nM | 1330 nM |  |  |  | 
Cc1c(NS(=O)(=O)c2cccnc2)cccc1-c1nc2cccnc2s1 | 2100 nM | 3060 nM | 4100 nM |  |  |  | 
COc1cc(-c2cnc3sc(-c4cccc(NS(=O)(=O)c5cc(F)ccc5OC)c4C)nc3c2)ccn1 | 4420 nM | 4560 nM | 8450 nM |  |  |  | 
Cc1c(NS(=O)(=O)c2ccccc2)cccc1-c1nc2cccnc2s1 | 2200 nM | 3320 nM | 4600 nM |  |  |  | 

SMILES | IC50 (HCC827 [1]) | IC50 (NCI-H1975) | IC50 (A549) | IC50 [2] | Activity (HCC827 [3]) | Activity (HCC827 [4]) | inhibition [5]
Cc1c(NS(=O)(=O)c2cnn(C)c2)cccc1-c1nc2cccnc2s1 | 2180 nM | 3300 nM | 4230 nM |  |  |  | 
COc1ccc(F)cc1S(=O)(=O)Nc1cccc(-c2nc3cc(-c4cccnc4OC)cnc3s2)c1C | 4400 nM | 4550 nM | 8410 nM |  |  |  | 
Cc1c(NS(=O)(=O)Cc2ccccc2)cccc1-c1nc2cccnc2s1 | 2240 nM | 3410 nM | 4620 nM |  |  |  | 
COc1ncccc1-c1cnc2sc(-c3cccc(NS(=O)(=O)c4cc(F)ccc4F)c3C)nc2c1 | 40 nM | 150 nM | 920 nM | 37100 nM |  |  | 
Cc1c(NS(=O)(=O)c2cc(F)ccc2F)cccc1-c1nc2cc(-c3ccc(C#N)nc3)cnc2s1 | 41 nM | 120 nM | 910 nM | 37000 nM |  |  | 
COc1ccc(F)cc1S(=O)(=O)Nc1cccc(-c2nc3cc(CN4CCN(C)CC4)cnc3s2)c1C | 4500 nM | 4600 nM | 8500 nM |  |  |  | 
COc1ccc(F)cc1S(=O)(=O)Nc1cccc(-c2nc3cc(-c4cncnc4)cnc3s2)c1C | 4330 nM | 4380 nM | 8140 nM |  |  |  | 
COc1ccc(F)cc1S(=O)(=O)Nc1cccc(-c2nc3cc(-c4cc[nH]n4)cnc3s2)c1C | 5010 nM | 4890 nM | 9340 nM |  |  |  | 
Cc1c(NS(=O)(=O)c2cc(F)ccc2F)cccc1-c1nc2cc(C#N)cnc2s1 | 94 nM | 280 nM | 1280 nM |  |  |  | 
COc1ccc(F)cc1S(=O)(=O)Nc1cccc(-c2nc3cc(-c4ccc(C(C)=O)cc4)cnc3s2)c1C | 6140 nM | 6300 nM | 11400 nM |  |  |  | 
CSc1ncc(-c2cnc3sc(-c4cccc(NS(=O)(=O)c5cc(F)ccc5F)c4C)nc3c2)cn1 | 10 nM | 90 nM | 800 nM | 44100 nM |  |  | 
Cc1c(NS(=O)(=O)c2cc(F)ccc2F)cccc1-c1nc2cc(-c3cc[nH]n3)cnc2s1 | 140 nM | 300 nM | 1340 nM |  |  |  | 
Cc1c(NS(=O)(=O)c2cc(F)ccc2F)cccc1-c1nc2cccnc2s1 | 1160 nM | 1090 nM | 3090 nM |  |  |  | 
Cc1c(N)cccc1-c1nc2cccnc2s1 | 10100 nM | 12700 nM | 29100 nM |  |  |  | 
COc1ccc(F)cc1S(=O)(=O)Nc1cccc(-c2nc3cc(-c4ccc(C#N)nc4)cnc3s2)c1C | 4380 nM | 4500 nM | 8330 nM |  |  |  | 
COc1ccc(F)cc1S(=O)(=O)Nc1cccc(-c2nc3cc(-c4ccc(C(F)(F)F)nc4)cnc3s2)c1C | 4360 nM | 4440 nM | 8230 nM |  |  |  | 
Cc1c(NS(=O)(=O)c2cc(F)ccc2F)cccc1-c1nc2cc(-c3ccccc3)cnc2s1 | 89 nM | 220 nM | 1160 nM |  |  |  | 
COc1cccc(-c2cnc3sc(-c4cccc(NS(=O)(=O)c5cc(F)ccc5F)c4C)nc3c2)c1 | 720 nM | 340 nM | 1090 nM |  |  |  | 
Cc1c(NS(=O)(=O)c2cc(F)ccc2F)cccc1-c1nc2cc(-c3ccc(C(F)(F)F)nc3)cnc2s1 | 44 nM | 220 nM | 980 nM |  |  |  | 
Cc1c(NS(=O)(=O)c2cc(F)ccc2F)cccc1-c1nc2cc(-c3cnc(N)nc3)cnc2s1 | 10 nM | 80 nM | 820 nM | 38400 nM | 31.9% | 8.8% | Active
COc1ccc(F)cc1S(=O)(=O)Nc1cccc(-c2nc3cc(-c4cnc(N)nc4)cnc3s2)c1C | 4310 nM | 4140 nM | 8120 nM |  |  |  | 
Cc1c(NS(=O)(=O)C2CCOCC2)cccc1-c1nc2cccnc2s1 | 2110 nM | 3120 nM | 4180 nM |  |  |  | 
Cc1c(NS(=O)(=O)c2ccccc2OC(F)(F)F)cccc1-c1nc2cccnc2s1 | 1520 nM | 2180 nM | 3190 nM |  |  |  | 
